# Experimental data: BindingDB's records for doi:10.1124/jpet.102.046128 (Bristol-Myers Squibb Pharmaceuticals Research Institute, 2003)
# Where “and” joins values, the source holds several entries; their conditions need not be identical. Equal values may be shown once.
# Biological target: T1, Corticotropin-releasing factor receptor 1 (Homo sapiens, UniProt P34998)
# T1 sequence (P34998 whole entry): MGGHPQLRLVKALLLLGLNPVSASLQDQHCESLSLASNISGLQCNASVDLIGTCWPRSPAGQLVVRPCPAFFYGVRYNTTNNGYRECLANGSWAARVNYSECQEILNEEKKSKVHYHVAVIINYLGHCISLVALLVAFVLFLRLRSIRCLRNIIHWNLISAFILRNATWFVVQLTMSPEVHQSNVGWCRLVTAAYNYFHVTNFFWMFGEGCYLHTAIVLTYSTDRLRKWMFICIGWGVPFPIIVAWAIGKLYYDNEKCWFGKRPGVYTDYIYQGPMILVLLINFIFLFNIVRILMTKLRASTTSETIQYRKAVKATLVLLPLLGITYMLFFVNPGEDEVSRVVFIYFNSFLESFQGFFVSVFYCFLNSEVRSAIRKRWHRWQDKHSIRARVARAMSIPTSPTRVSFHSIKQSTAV
row,Compound,Ki
1,CCCCN(CC)c1nc(C)nc2c1c(C)cn2-c1c(C)cc(C)cc1C,1.2 nM and 0.4 nM
2,CCC(CC)Nc1cc(C)nc2c(-c3ccc(OC)cc3C)c(C)nn12,0.4 nM
3,CCC(COC)n1nnc2c(Nc3ccc(OC)cc3C)nc(C)cc21 (stereo unspecified),6.8 nM and 4.9 nM
4,COCC(COC)Nc1nc(C)nc2c(-c3ccc(Cl)cc3Cl)c(C)nn12 [DMP696],2.8 nM
5,CC[C@H](C)[C@H](NC(=O)[C@H](CC(=O)O)NC(=O)[C@H](CC(C)C)NC(=O)[C@H](CC(C)C)NC(=O)[C@H](CCCCN)NC(=O)[C@H](CCCN=C(N)N)NC(=O)[C@H](CC(N)=O)NC(=O)[C@H](CO)NC(=O)[C@H](Cc1cnc[nH]1)NC(=O)[C@H](C)NC(=O)[C@H](CCC(N)=O)NC(=O)[C@H](CCC(N)=O)NC(=O)[C@H](C)NC(=O)[C@H](CC(C)C)NC(=O)[C@H](CCC(N)=O)NC(=O)[C@H](CC(=O)O)NC(=O)[C@H](C)NC(=O)[C@H](CCCCN)NC(=O)[C@@H](NC(=O)[C@H](CCSC)NC(=O)[C@H](CCC(=O)O)NC(=O)[C@H](CC(C)C)NC(=O)[C@@H](NC(=O)[C@H](CCC(=O)O)NC(=O)[C@H](CCCN=C(N)N)NC(=O)[C@H](CC(C)C)NC(=O)[C@H](CC(C)C)NC(=O)[C@H](Cc1cnc[nH]1)NC(=O)[C@H](Cc1ccccc1)NC(=O)[C@@H](NC(=O)[C@H](CC(C)C)NC(=O)[C@H](CC(=O)O)NC(=O)[C@H](CC(C)C)NC(=O)[C@H](CO)NC(=O)[C@@H](NC(=O)[C@@H]1CCCN1C(=O)[C@@H]1CCCN1C(=O)[C@H](CCC(=O)O)NC(=O)[C@H](CCC(N)=O)NC(=O)[C@@H](N)CO)[C@@H](C)CC)[C@@H](C)O)C(C)C)[C@@H](C)O)C(=O)N[C@@H](C)C(N)=O [NSC_0],3.3 nM and 23.1 nM
6,H-DLTFHLLREMLEMAKAEQEAEQAALNRLLLEEA-NH2 [NSC_0],> 1000 nM
